Test results: paper PMC3236199, “Development of Derivatives of 3, 3′-Diindolylmethane as Potent Leishmania donovani Bi-Subunit Topoisomerase IB Poisons” (PLoS ONE, 2011)
Read-outs that look alike come from different tables or passages of the source.

How the values were obtained:
[1] = system: L. donovani AG83 promastigotes; assay: Cell viability assay, wild type promastigotes; assay type: cell-based; conditions: Leishmania donovani, 12 h, read-out: growth inhibited
Protocol: (§1) L. donovani strain AG83 and DIM resistant parasite DR50 promastigotes were grown at 22°C in M199 liquid media supplemented with 10% FBS as described. Axenic amastigotes were cultured in modified M199 medium (pH 5.3) supplemented with 10 mM sodium succinate, 40 mM HEPES and 25% FCS and maintained at 37°C with 5% CO2.The effect of drugs on the viability of Leishmania parasites was determined by direct microscopic counting using light microscope (40× objective) in a haemocytometer. The cells at the exponential phase were collected and transferred into 24-well plate (3.5×10^6 cells per well). The cells were then incubated for 12 h in the presence of various concentrations of DIM, DPDIM, DMDIM and DMODIM (1, 5, 10, 20 and 50 µM). For other experiments, 10^4 cells were taken and grown in presence of the respective derivatives for a period of 30 days. For each 5 day interval, a small amount of aliquots were taken out. After incubation the cells were centrifuged and cell pellet was washed with PBS (1×) twice and finally suspended in 1 ml PBS (1×). Fifty µl of aliquot was taken, mixed with 0.4% trypan blue solution and incubated for 3 min at 22°C. One drop of the mixture was transferred to haemocytometer and the clear (live) and blue (dead) cells were counted. The total number of viable cells in aliquot was calculated by multiplying the total number of viable cells by 2 (the dilution factor for trypan blue). To obtain the total number of cells in the aliquot, total number of viable and nonviable cells were added up and multiplied by 2. Percentages of viable cells were calculated using the formula: [drawing 1]
The effects of different derivatives of DIM on cell proliferation were tested by incubating wild type and DIM resistant L. donovani promastigotes (3.5×10^6 cells/ml) with the drugs. […] The number of live promastigotes was measured by differential staining of live and dead cells using light microscope under 40× objective (Fig. 2). […]
(§2) Figure 2 Effect of DIM-derivatives on Leishmania parasites. Growth of L. donovani AG83 promastigotes (A) and DIM resistant promastigotes (B) were monitored in presence of increasing concentrations (1, 5, 10, 20 and 50 µM) of DIM, DPDIM, DMDIM and DMODIM for 12 h. […] Change in IC50 values after a prolong exposure to DIM derivatives (C) has been assessed as described in Materials and Methods. After every 5 day a small aliquot was taken out and number of viable promastigotes was counted for each concentration. IC50 values have been determined from them using Graph Pad Prsim ver 5.0 software and a graphical plot was generated over time. Growth of the parasites treated with the compounds was expressed as percentage of the viable promastigotes compared with that of control. […]

[2] = system: wild type L. donovani AG83 promastigotes; assay: DNA fragmentation assay (cell death detection ELISA), wild type; assay type: cell-based, Leishmania donovani; conditions: 20 µM
Protocol: Leishmanial cells were cultured in 24-well plates and treated with 20 µM of DIM, DPDIM, DMDIM and DMODIM for different times. Samples were collected at requisite time points and subjected to measurement of DNA fragmentations. Cytoplasmic histone-associated DNA fragments (mononucleosome and oligonucleosomes) formed during apoptosis were detected using a cell death detection ELISA kit (Roche Biochemicals) by spectrophotometric measurement of microtiter plates in a Thermo MULTISKAN EX plate reader at 405 nm. The relative percentages (with respect to samples treated with micrococcal nuclease and normalized to percentage values) were plotted as units of time or drug concentrations as described previously.
The internucleosomal DNA digestion by an endogenous nuclease (genomic DNA fragmentation) is considered as a hallmark of apoptotic cell death. […] To investigate whether these derivatives also do the same, we performed the DNA fragmentation assay with wild type L. donovani AG83 promastigotes and DIM resistant parasites (Fig. 4) by ELISA as described in Materials and Methods. […] DNA fragmentation increased to 85%, 89%, 81% and 71% at 8 h of treatment in wild type parasites. The DIM resistant parasites (LdDR50) have much less effect in DNA fragmentation (13% at 6 h and 17% at 8 h) when treated with 20 µM DIM. On the other hand the extents of DNA fragmentations were 63%, 51% and 40% at 6 h treatment with DPDIM, DMDIM and DMODIM respectively. The extent of fragmentation increased to 82%, 74% and 65% after treatment for 8 h with the drugs as mentioned above.
Figure 4 DIM derivatives-induced fragmentation of genomic DNA in wild type and DIM resistant parasites. Relative percentage of DNA fragmentation measured by cell death detection ELISA kit in L. donovani promastigotes treated with DIM, DPDIM, DMDIM and DMODIM. The experiments were performed three times and representative data from one of these experiments as means ± SD.

[3] = system: DIM resistant DR50 promastigotes; assay: Change in IC50 on prolonged exposure of DIM resistant promastigotes; assay type: cell-based; conditions: Leishmania donovani
Protocol: as §1, with “Fifty µl of aliquot was taken, mixed with 0.4% trypan blue solution and incubated for 3 min at 22°C.” left out, “To obtain the total number of cells in the aliquot, total number of viable and nonviable cells were added up and multiplied by 2.” left out
as §2, with “time.” for “time. Growth of the parasites treated with the compounds was expressed as percentage of the viable promastigotes compared with that of control.”

Compound | inhibition at 20 µM ([1]; 20 µM, wild type AG83 promastigotes) [%] | fragmentation of DNA ([2]; 6 h) [%] | fragmentation of DNA ([2]; 8 h) [%] | inhibition at 20 µM [1] [%] | IC50 ([3]; 24 h) [nM] | IC50 [3] [nM]
c1ccc2c(Cc3c[nH]c4ccccc34)c[nH]c2c1 [DIM, 3, 3′-diindolyl methane, reference compound] | 88 | 73 | 85 | – | – | –
Cc1[nH]c2ccccc2c1Cc1c(C)[nH]c2ccccc12 [DMDIM, 2,2′-dimethyl 3,3′-diindolyl methane] | – | 60 | 81 | 83 | – | –
COc1ccc2[nH]cc(Cc3c[nH]c4ccc(OC)cc34)c2c1 [DMODIM, 5,5′-dimethoxy 3,3′-diindolyl methane] | – | 49 | 71 | 70 | 7260 | –
c1ccc(-c2[nH]c3ccccc3c2Cc2c(-c3ccccc3)[nH]c3ccccc23)cc1 [DPDIM, 2,2′-diphenyl 3,3′-diindolyl methane] | – | 79 | 89 | 96 | 2300 | 50
